In the test the test system is male Hartley guinea pigs. The experiment in a line: Antitussive effect test: capsaicin-induced cough in guinea pigs with SO2-induced respiratory tract inflammation. Conditions: for Frequency of cough: capsaicin 10^-6 mol/l spray, coughs counted over 15 minutes, control group 22.4 ± 0.8; for Antitussive effect (in words): summary of Table 1, administered alone or in combination. The class given is in vivo, guinea pig. The text has this:
The synergetic effect of using fudosteine and an antitussive compound in combination was examined according to the following method.
Five male Hartley guinea pigs for one group, each having a weight of 300-400 g, were used as test animals. According to the method of Miyata et al. (Arch. Int. Pharmacodyn. Ther., vol. 304, p. 277, 1990), the guinea pigs were exposed to SO2 gas using an exposure apparatus for two hours a day in eight consecutive days to cause respiratory tract inflammation. The samples of which the components and dose are shown in Table 1 were orally administered before exposure to SO2 gas once a day in eight consecutive days since the start date of exposure. The guinea pigs were confined in a chamber without being anesthetized. On the date following the last SO2 exposure date, capsaicin (10^−6 mol/l) was sprayed over the chamber for two minutes using a ultrasonic nebulizer (TUR-3200, Nihon Kohden Corporation) to cause cough in the guinea pigs. […] The frequency of cough during this period was counted.

Results on 2 molecules are retold here after patent US20040147605A1, “Drug preparations” (priority 2001, published 2004).

On to `COc1ccc2c(c1)[C@]13CCCC[C@@H]1[C@H](C2)N(C)CC3` [Dextromethorphan], for which the “Antitussive effect (in words)” value is “exhibited an antitussive effect”. In addition, the Frequency of cough (dextromethorphan 150 mg/kg orally once a day for 8 days) turned out to be 13.6 ± 1.0. For the same molecule, the Frequency of cough (dextromethorphan 300 mg/kg orally once a day for 8 days) is listed as 10.2 ± 0.6 ^$.
Regarding `N[C@@H](CSCCCO)C(=O)O` [Fudosteine, S-(3-hydroxypropyl)-L-cysteine], the “Antitussive effect (in words)” value is recorded as “did not exhibit an antitussive effect”. Also, the Frequency of cough (fudosteine 30 mg/kg orally once a day for 8 days) is reported as 22.6 ± 1.1.
